Source: the supplement of paper PMC10307832

What was measured:
Test in all cases: relative viability (nuclei count vs DMSO), 5 days (fraction); higher = more cells survive
NCI-H727 = test system: NCI-H727
Summary of the method: (§1)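 Relative viability divides the nuclei count in treated wells by that in vehicle wells. Lung cancer cell lines were seeded in 1536-well plates, dosed by pin tool the next day, and fixed and stained after 5 days in one step with final 0.05% Triton X-100, 1% formaldehyde and 1 ug/ml Hoechst. Dosing was a single drug or a fixed anchor-drug dose plus five library-drug doses (not always all listed) in √10 steps, and values are medians of duplicate plates imaged at 4×.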

HOP-62 = test system: HOP-62
Summary of the method: as §1

NCI-H322M = test system: NCI-H322M
Summary of the method: as §1

EPLC-272H = test system: EPLC-272H
Summary of the method: as §1

NCI-H1993 = test system: NCI-H1993
Summary of the method: as §1

LXF-289 = test system: LXF-289
Summary of the method: as §1

H3255 = test system: H3255
Summary of the method: as §1

NCI-H1563 = test system: NCI-H1563
Summary of the method: as §1

NCI-H2347 = test system: NCI-H2347
Summary of the method: as §1

NCI-H2023 = test system: NCI-H2023
Summary of the method: as §1

PC-14 = test system: PC-14
Summary of the method: as §1

NCI-H1915 = test system: NCI-H1915
Summary of the method: as §1

NCI-H2009 = test system: NCI-H2009
Summary of the method: as §1

NCI-H2085 = test system: NCI-H2085
Summary of the method: as §1

NCI-H2126 = test system: NCI-H2126
Summary of the method: as §1

SK-LU-1 = test system: SK-LU-1
Summary of the method: as §1

LCLC-97TM1 = test system: LCLC-97TM1
Summary of the method: as §1

NCI-H661 = test system: NCI-H661
Summary of the method: as §1

NCI-H1650 = test system: NCI-H1650
Summary of the method: as §1

EMC-BAC-2 = test system: EMC-BAC-2
Summary of the method: as §1

SW 1573 = test system: SW 1573
Summary of the method: as §1

NCI-H647 = test system: NCI-H647
Summary of the method: as §1

Structure (SMILES): O=C(O)c1ccc(-c2c[nH]c3ncc(-c4ccccc4)cc23)cc1C1CCCC1 + CC(C)C[C@H](NC(=O)[C@H](Cc1ccccc1)NC(=O)c1cnccn1)B(O)O [Bortezomib] (partner 0.002 µM)
- relative viability (NCI-H727; first compound 0.04 µM): 0.788
- relative viability (NCI-H727; first compound 0.1265 µM): 0.99
- relative viability (NCI-H727; first compound 0.4 µM): 0.906
- relative viability (NCI-H727; first compound 1.265 µM): 0.783
- relative viability (HOP-62; first compound 0.04 µM): 1.01
- relative viability (HOP-62; first compound 0.1265 µM): 0.725
- relative viability (HOP-62; first compound 0.4 µM): 0.93
- relative viability (HOP-62; first compound 1.265 µM): 0.886
- relative viability (NCI-H322M; first compound 0.04 µM): 1.25
- relative viability (NCI-H322M; first compound 0.1265 µM): 1.32
- relative viability (NCI-H322M; first compound 0.4 µM): 1.33
- relative viability (NCI-H322M; first compound 1.265 µM): 1.23
- relative viability (EPLC-272H; first compound 0.04 µM): 0.755
- relative viability (EPLC-272H; first compound 0.1265 µM): 1.13
- relative viability (EPLC-272H; first compound 0.4 µM): 0.931
- relative viability (EPLC-272H; first compound 1.265 µM): 1.01
- relative viability (NCI-H1993; first compound 0.04 µM): 1.18
- relative viability (NCI-H1993; first compound 0.4 µM): 1.14
- relative viability (NCI-H1993; first compound 1.265 µM): 0.871
- relative viability (LXF-289; first compound 0.04 µM): 0.969
- relative viability (LXF-289; first compound 0.1265 µM): 0.944
- relative viability (LXF-289; first compound 0.4 µM): 0.8
- relative viability (LXF-289; first compound 1.265 µM): 0.568
- relative viability (H3255; first compound 0.04 µM): 1.12
- relative viability (H3255; first compound 0.1265 µM): 0.972
- relative viability (H3255; first compound 0.4 µM): 0.833
- relative viability (H3255; first compound 1.265 µM): 0.732
- relative viability (NCI-H1563; first compound 0.04 µM): 0.832
- relative viability (NCI-H1563; first compound 0.1265 µM): 0.869
- relative viability (NCI-H1563; first compound 0.4 µM): 0.907
- relative viability (NCI-H1563; first compound 1.265 µM): 0.931
- relative viability (NCI-H2347; first compound 0.04 µM): 1.03
- relative viability (NCI-H2347; first compound 0.1265 µM): 1.32
- relative viability (NCI-H2347; first compound 0.4 µM): 0.869
- relative viability (NCI-H2347; first compound 1.265 µM): 1.05
- relative viability (NCI-H2023; first compound 0.04 µM): 1.04
- relative viability (NCI-H2023; first compound 0.1265 µM): 1.08
- relative viability (NCI-H2023; first compound 0.4 µM): 1.09
- relative viability (NCI-H2023; first compound 1.265 µM): 0.699
- relative viability (PC-14; first compound 0.04 µM): 0.917
- relative viability (PC-14; first compound 0.1265 µM): 0.901
- relative viability (PC-14; first compound 0.4 µM): 0.891
- relative viability (PC-14; first compound 1.265 µM): 0.758
- relative viability (NCI-H1915; first compound 0.04 µM): 0.957
- relative viability (NCI-H1915; first compound 0.1265 µM): 0.949
- relative viability (NCI-H1915; first compound 0.4 µM): 0.957
- relative viability (NCI-H1915; first compound 1.265 µM): 0.789
- relative viability (NCI-H2009; first compound 0.04 µM): 0.997
- relative viability (NCI-H2009; first compound 0.1265 µM): 0.966
- relative viability (NCI-H2009; first compound 0.4 µM): 0.942
- relative viability (NCI-H2009; first compound 1.265 µM): 0.794
- relative viability (NCI-H2085; first compound 0.04 µM): 1.08
- relative viability (NCI-H2085; first compound 0.1265 µM): 1.07
- relative viability (NCI-H2085; first compound 0.4 µM): 1.02
- relative viability (NCI-H2085; first compound 1.265 µM): 0.896
- relative viability (NCI-H2126; first compound 0.04 µM): 1.16
- relative viability (NCI-H2126; first compound 0.1265 µM): 1.13
- relative viability (NCI-H2126; first compound 0.4 µM): 1.1
- relative viability (NCI-H2126; first compound 1.265 µM): 1.02
- relative viability (SK-LU-1; first compound 0.04 µM): 1.11
- relative viability (SK-LU-1; first compound 0.1265 µM): 1.17
- relative viability (SK-LU-1; first compound 0.4 µM): 1.15
- relative viability (SK-LU-1; first compound 1.265 µM): 0.693
- relative viability (LCLC-97TM1; first compound 0.04 µM): 0.835
- relative viability (LCLC-97TM1; first compound 0.1265 µM): 1.03
- relative viability (LCLC-97TM1; first compound 0.4 µM): 0.763
- relative viability (LCLC-97TM1; first compound 1.265 µM): 0.403
- relative viability (NCI-H661; first compound 0.04 µM): 0.72
- relative viability (NCI-H661; first compound 0.1265 µM): 0.791
- relative viability (NCI-H661; first compound 0.4 µM): 0.82
- relative viability (NCI-H661; first compound 1.265 µM): 0.935
- relative viability (NCI-H1650; first compound 0.04 µM): 0.185
- relative viability (NCI-H1650; first compound 0.1265 µM): 0.208
- relative viability (NCI-H1650; first compound 0.4 µM): 0.205
- relative viability (NCI-H1650; first compound 1.265 µM): 0.178
- relative viability (EMC-BAC-2; first compound 0.04 µM): 1.02
- relative viability (EMC-BAC-2; first compound 0.1265 µM): 1.16
- relative viability (EMC-BAC-2; first compound 0.4 µM): 1.02
- relative viability (EMC-BAC-2; first compound 1.265 µM): 1.04
- relative viability (SW 1573; first compound 0.04 µM): 1.11
- relative viability (SW 1573; first compound 0.1265 µM): 1.09
- relative viability (SW 1573; first compound 0.4 µM): 0.99
- relative viability (SW 1573; first compound 1.265 µM): 0.722
- relative viability (NCI-H647; first compound 0.04 µM): 0.896
- relative viability (NCI-H647; first compound 0.1265 µM): 1.19
- relative viability (NCI-H647; first compound 0.4 µM): 1.3
- relative viability (NCI-H647; first compound 1.265 µM): 0.772
